Converted amounts (≈) assume the structure as drawn.
What was measured:
[1] = molecular target: T1, tRNA (guanine-N(1)-)-methyltransferase (Escherichia coli (strain K12), UniProt P0A873); assay: Inhibition of Escherichia coli TrmD
T1 sequence (P0A873 whole entry): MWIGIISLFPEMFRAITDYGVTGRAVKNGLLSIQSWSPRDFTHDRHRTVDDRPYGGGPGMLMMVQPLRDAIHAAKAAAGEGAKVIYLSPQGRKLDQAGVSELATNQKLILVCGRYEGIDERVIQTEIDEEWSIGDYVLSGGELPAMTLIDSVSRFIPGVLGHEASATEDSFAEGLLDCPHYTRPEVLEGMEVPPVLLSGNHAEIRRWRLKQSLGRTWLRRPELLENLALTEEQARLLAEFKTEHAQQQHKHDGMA

[2] = Lipophilicity, logD of the compound at pH 7.4; format: physicochemical; conditions: buffer
[3] = test system: Haemophilus influenzae; assay: Antibacterial activity against Haemophilus influenzae ATCC 49247 assessed as inhibition of bacterial growth; format: functional
[4] = test system: Escherichia coli; assay: Antibacterial activity against efflux-defective Escherichia coli N43 deficit of AcrAB-TolC assessed as inhibition of bacterial growth; format: functional
[5] = test system: Escherichia coli; assay: Antibacterial activity against efflux-defective Escherichia coli N43 deficit of AcrAB-TolC assessed as inhibition of bacterial growth in presence of 4 ug/ml membrane-permeabilising agent, polymyxin B; format: functional
[6] = test system: Neisseria gonorrhoeae; assay: Antibacterial activity against Neisseria gonorrhoeae ATCC 49226 assessed as inhibition of bacterial growth; format: functional
[7] = test system: Acinetobacter baumannii; assay: Antibacterial activity against Acinetobacter baumannii NCTC 13420 assessed as inhibition of bacterial growth; format: functional
[8] = test system: Bacillus subtilis; assay: Antibacterial activity against Bacillus subtilis ATCC 6633 assessed as inhibition of bacterial growth; format: functional
[9] = test system: Francisella tularensis; assay: Antibacterial activity against Francisella tularensis-Schu S4 assessed as inhibition of bacterial growth; format: functional
[10] = test system: Pseudomonas aeruginosa; assay: Antibacterial activity against Pseudomonas aeruginosa ATCC 27853 assessed as inhibition of bacterial growth; format: functional
[11] = test system: Staphylococcus epidermidis; assay: Antibacterial activity against Staphylococcus epidermidis ATCC 12228 assessed as inhibition of bacterial growth; format: functional
[12] = test system: Burkholderia cepacia; assay: Antibacterial activity against Burkholderia cepacia ATCC 25416 assessed as inhibition of bacterial growth; format: functional
[13] = test system: Enterococcus faecium; assay: Antibacterial activity against Enterococcus faecium ATCC 19434 assessed as inhibition of bacterial growth; format: functional
[14] = test system: Streptococcus pneumoniae; assay: Antibacterial activity against Streptococcus pneumoniae ATCC 49619 assessed as inhibition of bacterial growth; format: functional
[15] = test system: Moraxella catarrhalis; assay: Antibacterial activity against Moraxella catarrhalis ATCC 25240 assessed as inhibition of bacterial growth; format: functional
[16] = test system: Yersinia pestis; assay: Antibacterial activity against Yersinia pestis CO92 assessed as inhibition of bacterial growth; format: functional
[17] = test system: Coxiella burnetii; assay: Antibacterial activity against Coxiella burnetii Nine Mile assessed as inhibition of bacterial growth; format: functional
[18] = Cytotoxicity against human HepG2 cells; format: toxicity, cell-based
[19] = molecular target: T1, tRNA (guanine-N(1)-)-methyltransferase; assay: Binding affinity to Escherichia coli TrmD by surface plasmon resonance assay
[20] = test system: Escherichia coli; assay: Antibacterial activity against Escherichia coli W4573 harboring functional AcrAB-TolC assessed as inhibition of bacterial growth

SMILES | IC50 [1] [µM] | MIC [3] [µg/mL] | MIC [4] [µg/mL] | MIC [5] [µg/mL] | also measured
NC(=O)c1ccc2[nH]ccc2c1 | 160 |  |  |  | 
NC(=O)c1ccc(N)cc1 | 670 |  |  |  | 
NC(=O)c1cnc2c(ccn2CC(=O)NC2CNC2)c1 | 4.5 |  |  |  | 
NC(=O)c1cnc2c(ccn2CC(=O)NC2CCNCC2)c1 | 6.5 |  |  |  | 
NC(=O)c1ccc(NCc2cccc(N3CCNC(C(F)(F)F)C3)c2)nc1 (centres undefined) | > 10 |  |  |  | 
NCc1ccc(Cn2ccc3cc(C(N)=O)ccc32)cc1 | 13 |  |  |  | 
CC(C)(C)CNc1ccc(C(N)=O)cn1 | 0.14 |  |  |  | 
NC(=O)c1ccc(NC2(c3cccc(N4CCNCC4)c3)CC2)nc1 | 0.011 | 1020 (≈ 3030 µM) | > 1020 | > 1020 | logD [2]: 1.4
NCc1cccc(CNc2ccc(C(N)=O)cn2)c1 | 1.4 |  |  |  | 
CC(C)[C@H]1CN(C(=O)Cn2c(C3CC3)cc3cc(C(N)=O)cnc32)CCN1 | 0.096 | 1020 (≈ 2770 µM) | > 1020 | > 1020 | 
CN(C(=O)Cn1c(C2CC2)cc2cc(C(N)=O)cnc21)[C@@H]1C[C@H]2CC[C@@H](C1)N2 | 0.036 | > 512 | > 512 | > 1020 | logD [2]: 0.2
NC(=O)c1cnc2c(c1)cc(C1CC1)n2CC(=O)N1CCNCC1 | 0.013 |  | > 1020 | > 1020 | logD [2]: -0.1; MIC [6]: > 256 µg/mL; MIC [7]: > 256 µg/mL; MIC [8]: > 256 µg/mL; MIC [9]: > 256 µg/mL; MIC [10]: > 256 µg/mL; MIC [11]: > 256 µg/mL; MIC [12]: > 256 µg/mL; MIC [13]: > 256 µg/mL; MIC [14]: > 256 µg/mL; MIC [15]: > 256 µg/mL; MIC [16]: 256 µg/mL (≈ 782 µM); MIC [17]: > 64 µg/mL; CC50 [18]: > 256 µg/mL
C[C@@H](Nc1ccc(C(N)=O)cn1)c1ccccc1 | 48 |  |  |  | 
CN1CCN(C(=O)Cn2c(C3CC3)cc3cc(C(N)=O)cnc32)CC1 | 0.038 | > 1020 | > 512 | > 512 | logD [2]: 2.7
NC(=O)c1ccc2nc(N)sc2c1 | 150 |  |  |  | Kd [19]: 420 µM
NC(=O)c1ccc(NCc2ccccc2)nc1 | 3.2 |  |  |  | 
CN(C(=O)Cn1ccc2cc(C(N)=O)cnc21)C1CCNCC1 | 0.83 |  |  |  | 
CC(C)(CNc1ccc(C(N)=O)cn1)c1cccc(CN)c1 | 0.009 | 256 (≈ 858 µM) | > 1020 | > 1020 | MIC [6]: > 256 µg/mL; MIC [7]: > 256 µg/mL; MIC [8]: > 256 µg/mL; MIC [9]: > 256 µg/mL; MIC [10]: > 256 µg/mL; MIC [11]: > 256 µg/mL; MIC [12]: > 256 µg/mL; MIC [13]: > 256 µg/mL; MIC [14]: > 256 µg/mL; MIC [15]: > 256 µg/mL; MIC [16]: 256 µg/mL (≈ 858 µM); MIC [17]: > 64 µg/mL; CC50 [18]: > 256 µg/mL
CN1CCC(N(C)C(=O)Cn2c(C3CC3)cc3cc(C(N)=O)cnc32)CC1 | 0.039 | > 256 | > 512 | > 1020 | 

SMILES | IC50 [1] [µM] | MIC [3] [µg/mL] | MIC [4] [µg/mL] | MIC [5] [µg/mL] | also measured
CC(C)(CNc1ccc(C(N)=O)cn1)c1ccccc1 | 0.027 | 512 (≈ 1900 µM) | 512 (≈ 1900 µM) | 256 | logD [2]: 3; MIC [6]: 128 µg/mL (≈ 475 µM); MIC [7]: > 256 µg/mL; MIC [8]: > 256 µg/mL; MIC [9]: > 256 µg/mL; MIC [10]: > 256 µg/mL; MIC [11]: > 256 µg/mL; MIC [12]: > 256 µg/mL; MIC [13]: > 256 µg/mL; MIC [14]: > 256 µg/mL; MIC [15]: 128 µg/mL (≈ 475 µM); MIC [16]: 256 µg/mL (≈ 950 µM); MIC [17]: > 64 µg/mL; CC50 [18]: > 128 µg/mL
NC(=O)c1ccc(NC2CCCC2)nc1 | 0.11 |  |  |  | 
NC(=O)c1cnc2c(c1)cc(C1CC1)n2CC(=O)N1CCNC(=O)C1 | 0.12 | > 512 | > 1020 | > 1020 | 
NC(=O)c1ccc(NC2(c3ccccc3)CC2)nc1 | 0.27 |  |  |  | 
NCc1ccc(Cn2ccc3cc(C(N)=O)cnc32)cc1 | 1.9 |  |  |  | 
NC(=O)c1ccc(N)cn1 | > 1000 |  |  |  | 
C[C@H](Nc1ccc(C(N)=O)cn1)c1ccccc1 | 1.3 |  |  |  | 
CC(C)(Nc1ccc(C(N)=O)cn1)c1ccccc1 | 2.1 |  |  |  | 
OCc1cc(-c2cccs2)[nH]n1 | 320 |  |  |  | Kd [19]: 260 µM
NCc1ccc(Cn2c(C3CC3)cc3cc(C(N)=O)cnc32)cc1 | 0.31 | > 1020 | 1020 (≈ 3200 µM) | 1020 | logD [2]: 1.4
CNC(=O)Cn1ccc2cc(C(N)=O)cnc21 | 64 |  |  |  | 
CC(C)(CNc1ccc(C(N)=O)cn1)c1cccc(NC2CNC2)c1 | 0.13 | > 512 | > 1020 | > 1020 | logD [2]: 1
NC(=O)c1cnc2c(ccn2CC(=O)N2CCNCC2)c1 | 0.8 |  |  |  | 
NC(=O)c1ccc(NCc2cccc(N3CCNCC3)c2)nc1 | 0.31 | 1020 (≈ 3290 µM) | > 1020 | > 1020 | logD [2]: 1
NCc1ccc(CNc2ccc(C(N)=O)cn2)cc1 | 2.3 |  |  |  | 
CN(C(=O)Cn1c(C2CC2)cc2cc(C(N)=O)cnc21)C1CCNCC1 | 0.037 | > 1020 | > 256 | > 512 | logD [2]: -0.2
CC(C)(CNc1ccc(C(N)=O)cn1)c1cccc(N2CCNCC2)c1 | 0.05 | > 1020 | 1020 (≈ 2900 µM) | 1020 | logD [2]: 1.6
NC(=O)c1ccc(N)nc1 [6-AMINONICOTINAMIDE] | 26 |  |  |  | Kd [19]: 1.3 µM
CC[C@H]1OC(=O)[C@H](C)[C@@H](O[C@H]2C[C@@](C)(OC)[C@@H](O)[C@H](C)O2)[C@H](C)[C@@H](O[C@@H]2O[C@H](C)C[C@H](N(C)C)[C@H]2O)[C@](C)(O)C[C@@H](C)C(=O)[C@H](C)[C@@H](O)[C@]1(C)O [ERYTHROMYCIN] |  | 4 (≈ 5.45 µM) | 8 (≈ 10.9 µM) | 0.5 | MIC [20]: 64 µg/mL (≈ 87.2 µM)

Reference: ChEMBL document CHEMBL5247663, “Evaluating the druggability of TrmD, a potential antibacterial target, through design and microbiological profiling of a series of potent TrmD inhibitors” (Bioorg Med Chem Lett, 2023)
